# ChEMBL document CHEMBL1201862, “PubChem BioAssay data set” (2004)
#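 These data come from cells grown in 96-well plates and exposed to compound for 48 hours at five concentrations. Abbreviation: GI50, concentration required for 50% inhibition of growth.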 The source made the active and inactive calls. Rule as the data show it: active = GI50 up to about 1.1 µM and inactive = higher. Non-standard residues stand in square brackets, D forms with d. Residues, ends and D or L forms follow the SMILES beside them. ξ: configuration not given here. *: point of attachment. ξNMeF = CNC(Cc1ccccc1)C(=O)O; NMeV = CN[C@H](C(=O)O)C(C)C; Boc = CC(C)(C)OC(=O)*; OBn = c1ccc(CO*)cc1
# What was measured:
# Experiment in all cases: NCI anticancer screen, dose series, 48 h
# 786-0 = tested on: 786-0
# A498 = tested on: A498
# ACHN = tested on: ACHN
# EKVX = tested on: EKVX
# HOP-92 = tested on: HOP-92
# HT-29 = tested on: HT-29
# K562 = tested on: K562
# KM12 = tested on: KM12
# LOX IMVI = tested on: LOX IMVI
# NCI-H226 = tested on: NCI-H226
# OVCAR-8 = tested on: OVCAR-8
# RXF 393 = tested on: RXF 393
# SF-539 = tested on: SF-539
# SK-MEL-28 = tested on: SK-MEL-28
# SK-MEL-5 = tested on: SK-MEL-5
# SN12C = tested on: SN12C
# SW-620 = tested on: SW-620
# TK-10 = tested on: TK-10
# UACC-257 = tested on: UACC-257
# UACC-62 = tested on: UACC-62
SMILES,GI50 (786-0),GI50 (A498),GI50 (ACHN),GI50 (EKVX),GI50 (HOP-92),GI50 (HT-29),GI50 (K562),GI50 (KM12),GI50 (LOX IMVI),GI50 (NCI-H226),GI50 (OVCAR-8),GI50 (RXF 393),GI50 (SF-539),GI50 (SK-MEL-28),GI50 (SK-MEL-5),GI50 (SN12C),GI50 (SW-620),GI50 (TK-10),GI50 (UACC-257),GI50 (UACC-62)
C=C1CC[C@@H](CCC2CCC3(OC2)O[C@]2(O)CC[C@@]3(C)OC2(C)C)C(C)(C)[C@H]1C/C=C1\CCOC1=O (some centres not stated),11.8 µM (inactive),13.3 µM (inactive),10.7 µM (inactive),1.11 µM (active),10.5 µM (inactive),4.93 µM (inactive),0.0798 µM (active),16.2 µM (inactive),0.131 µM (active),3.91 µM (inactive),15.3 µM (inactive),14.9 µM (inactive),5.3 µM (inactive),26.1 µM (inactive),0.0244 µM (active),16.6 µM (inactive),33.3 µM (inactive),39.5 µM (inactive),0.507 µM (active),27 µM (inactive)
Cc1ccc(S(=O)(=O)NNC(=O)c2sc(-c3nc(C)c(C(=O)NNS(=O)(=O)c4ccc(C)cc4)s3)nc2C)cc1,69.7 µM (inactive),> 100 µM (inactive),97.9 µM (inactive),> 100 µM (inactive),31 µM (inactive),57.3 µM (inactive),45.9 µM (inactive),> 100 µM (inactive),> 100 µM (inactive),50.7 µM (inactive),> 100 µM (inactive),> 100 µM (inactive),> 100 µM (inactive),> 100 µM (inactive),71.1 µM (inactive),> 100 µM (inactive),> 100 µM (inactive),> 100 µM (inactive),> 100 µM (inactive),72.3 µM (inactive)
CN1C(=O)CC2(C)c3cc(C=O)ccc3N(C)C12 (configuration not stated),> 100 µM (inactive),> 100 µM (inactive),> 100 µM (inactive),> 100 µM (inactive),> 100 µM (inactive),> 100 µM (inactive),> 100 µM (inactive),> 100 µM (inactive),> 100 µM (inactive),> 100 µM (inactive),> 100 µM (inactive),> 100 µM (inactive),> 100 µM (inactive),> 100 µM (inactive),> 100 µM (inactive),> 100 µM (inactive),> 100 µM (inactive),> 100 µM (inactive),> 100 µM (inactive),> 100 µM (inactive)
O=C(OCc1ccccc1[N+](=O)[O-])N1c2ccccc2[C@@]23O[C@]24CCC[C@H]3C#C/C=C\C#C[C@H]14,15.7 µM (inactive),> 100 µM (inactive),12.8 µM (inactive),> 100 µM (inactive),25.6 µM (inactive),38.1 µM (inactive),5.83 µM (inactive),> 100 µM (inactive),6.73 µM (inactive),> 100 µM (inactive),49 µM (inactive),> 100 µM (inactive),9.95 µM (inactive),44.1 µM (inactive),12.4 µM (inactive),13.7 µM (inactive),9.16 µM (inactive),> 100 µM (inactive),> 100 µM (inactive),22.7 µM (inactive)
COc1nc(NC2OCC(OC(C)=O)C(OC(C)=O)C2OC(C)=O)c(/N=C(\C)C(C)=O)c(=O)n1C (configuration not stated),–,> 100 µM (inactive),> 100 µM (inactive),> 100 µM (inactive),> 100 µM (inactive),> 100 µM (inactive),> 100 µM (inactive),> 100 µM (inactive),> 100 µM (inactive),0.63 µM (active),> 100 µM (inactive),> 100 µM (inactive),> 100 µM (inactive),> 100 µM (inactive),> 100 µM (inactive),> 100 µM (inactive),> 100 µM (inactive),> 100 µM (inactive),> 100 µM (inactive),–
CC(=O)OCC1OC(n2cnc3nc(Br)[nH]c(=O)c32)C(OC(C)=O)C1OC(C)=O (configuration not stated),> 100 µM (inactive),> 100 µM (inactive),> 100 µM (inactive),> 100 µM (inactive),> 100 µM (inactive),> 100 µM (inactive),> 100 µM (inactive),> 100 µM (inactive),> 100 µM (inactive),> 100 µM (inactive),> 100 µM (inactive),> 100 µM (inactive),> 100 µM (inactive),–,> 100 µM (inactive),> 100 µM (inactive),> 100 µM (inactive),> 100 µM (inactive),> 100 µM (inactive),> 100 µM (inactive)
COC(=O)C[C@](O)(CCC(C)(C)O)C(=O)O[C@@H]1C(OC)=C[C@]23CCCN2CCc2cc4c(cc2[C@H]13)OCO4 [HARRINGTONINE],–,0.073 µM (active),–,0.0802 µM (active),0.164 µM (active),0.0661 µM (active),0.05 µM (active),0.0693 µM (active),0.047 µM (active),0.0306 µM (active),0.16 µM (active),0.103 µM (active),0.0295 µM (active),0.0593 µM (active),0.0557 µM (active),0.212 µM (active),0.119 µM (active),–,0.158 µM (active),0.23 µM (active)
CC(C)[C@@H](C(=O)N(C)[C@H](C(=O)N1CCC[C@H]1C(=O)OCc1ccccc1)C(C)C)N(C)C(=O)C(Cc1ccccc1)N(C)C(=O)[C@H](NC(=O)OC(C)(C)C)C(C)C (some centres not stated) (Boc-[dV][ξNMeF][NMeV][NMeV]P-OBn),> 46.8 µM (inactive),> 31.6 µM (inactive),–,> 31.6 µM (inactive),8.34 µM (inactive),> 31.6 µM (inactive),13.5 µM (inactive),> 10 µM (inactive),> 31.6 µM (inactive),> 100 µM (inactive),> 31.6 µM (inactive),> 31.6 µM (inactive),> 31.6 µM (inactive),> 31.6 µM (inactive),15.6 µM (inactive),–,> 31.6 µM (inactive),> 31.6 µM (inactive),> 31.6 µM (inactive),> 31.6 µM (inactive)
COC(=O)[C@]1(C)C(OC)=CC(=O)C2C1[C@H]1CCC[C@@H]21 (some centres not stated),> 100 µM (inactive),> 100 µM (inactive),> 100 µM (inactive),> 100 µM (inactive),> 100 µM (inactive),> 100 µM (inactive),> 100 µM (inactive),> 100 µM (inactive),> 100 µM (inactive),> 100 µM (inactive),> 100 µM (inactive),> 100 µM (inactive),> 100 µM (inactive),> 100 µM (inactive),> 100 µM (inactive),> 100 µM (inactive),–,> 100 µM (inactive),> 100 µM (inactive),> 100 µM (inactive)
O=C1c2c[nH]nc2C(c2ccccc2)N1c1ccccc1 (configuration not stated),> 10 µM (inactive),> 10 µM (inactive),> 10 µM (inactive),> 10 µM (inactive),> 10 µM (inactive),> 10 µM (inactive),–,> 10 µM (inactive),> 10 µM (inactive),> 10 µM (inactive),> 10 µM (inactive),> 10 µM (inactive),> 10 µM (inactive),> 10 µM (inactive),> 10 µM (inactive),> 10 µM (inactive),> 10 µM (inactive),> 10 µM (inactive),> 10 µM (inactive),> 10 µM (inactive)
CC(=O)Nc1cc2ccc(=O)oc2cc1Cl,> 100 µM (inactive),> 100 µM (inactive),> 100 µM (inactive),> 100 µM (inactive),> 100 µM (inactive),> 100 µM (inactive),> 100 µM (inactive),> 100 µM (inactive),> 100 µM (inactive),> 100 µM (inactive),> 100 µM (inactive),> 100 µM (inactive),> 100 µM (inactive),> 100 µM (inactive),> 100 µM (inactive),> 100 µM (inactive),> 100 µM (inactive),–,> 100 µM (inactive),> 100 µM (inactive)
O=c1oc(C(C(F)(F)F)C(F)(F)F)nc2ccccc12,> 100 µM (inactive),> 100 µM (inactive),> 100 µM (inactive),> 100 µM (inactive),> 100 µM (inactive),> 100 µM (inactive),> 100 µM (inactive),–,> 100 µM (inactive),> 100 µM (inactive),> 100 µM (inactive),> 100 µM (inactive),> 100 µM (inactive),> 100 µM (inactive),> 100 µM (inactive),–,> 100 µM (inactive),> 100 µM (inactive),> 100 µM (inactive),–
CC(C)(C)NNC(=O)/C(=C/c1ccc(Oc2ccc(Cl)c(Cl)c2)cc1)NC(=O)c1ccccc1,59.6 µM (inactive),> 100 µM (inactive),> 100 µM (inactive),> 100 µM (inactive),> 100 µM (inactive),> 100 µM (inactive),42.5 µM (inactive),> 100 µM (inactive),18.9 µM (inactive),> 100 µM (inactive),> 100 µM (inactive),> 100 µM (inactive),> 100 µM (inactive),> 100 µM (inactive),> 100 µM (inactive),> 100 µM (inactive),–,> 100 µM (inactive),> 100 µM (inactive),> 100 µM (inactive)
COC1OCC(O)C(NC(=O)N(C)N=O)C1O (configuration not stated),–,> 100 µM (inactive),–,> 100 µM (inactive),> 100 µM (inactive),> 100 µM (inactive),> 100 µM (inactive),> 100 µM (inactive),> 100 µM (inactive),> 100 µM (inactive),> 100 µM (inactive),> 100 µM (inactive),> 100 µM (inactive),> 100 µM (inactive),> 100 µM (inactive),> 100 µM (inactive),> 100 µM (inactive),–,> 100 µM (inactive),> 100 µM (inactive)
